# Like-named read-outs stand apart in the source and are kept apart here.
# Key:
# [1] = biological target: T1, FXR ligand binding domain (LBD) (Homo sapiens, UniProt Q96RI1); assay: AlphaScreen assay: FXR LBD recruitment of coregulator peptide motifs (SRC2-3, SRC1-2); assay type: biochemical; conditions: Table 2
# T1 construct: made in house
# T1 sequence (Q96RI1 262-486 limits assumed): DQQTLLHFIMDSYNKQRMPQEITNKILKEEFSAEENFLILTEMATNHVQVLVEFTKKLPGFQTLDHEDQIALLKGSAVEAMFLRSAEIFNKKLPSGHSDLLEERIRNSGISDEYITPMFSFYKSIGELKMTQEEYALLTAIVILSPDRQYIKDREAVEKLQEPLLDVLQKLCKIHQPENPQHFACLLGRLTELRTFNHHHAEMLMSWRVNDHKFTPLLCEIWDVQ
# [2] = biological target: T2, full-length FXR (Homo sapiens, UniProt Q96RI1); assay: Cell-based FXR transactivation, EcRE luciferase reporter in COS-7 cells; conditions: Table 2; for Cell-based FXR transactivation Fold changes by 5 μM compound: positive: induction, minus: repression; for EC50: EcRE luciferase reporter
# T2 construct: The cells were co-transfected with plasmids encoding full-length FXR and the cognate luciferase reporter EcRE-Luc; expressed in transfected cells; host or cells: COS-7
# T2 sequence (Q96RI1 1-486): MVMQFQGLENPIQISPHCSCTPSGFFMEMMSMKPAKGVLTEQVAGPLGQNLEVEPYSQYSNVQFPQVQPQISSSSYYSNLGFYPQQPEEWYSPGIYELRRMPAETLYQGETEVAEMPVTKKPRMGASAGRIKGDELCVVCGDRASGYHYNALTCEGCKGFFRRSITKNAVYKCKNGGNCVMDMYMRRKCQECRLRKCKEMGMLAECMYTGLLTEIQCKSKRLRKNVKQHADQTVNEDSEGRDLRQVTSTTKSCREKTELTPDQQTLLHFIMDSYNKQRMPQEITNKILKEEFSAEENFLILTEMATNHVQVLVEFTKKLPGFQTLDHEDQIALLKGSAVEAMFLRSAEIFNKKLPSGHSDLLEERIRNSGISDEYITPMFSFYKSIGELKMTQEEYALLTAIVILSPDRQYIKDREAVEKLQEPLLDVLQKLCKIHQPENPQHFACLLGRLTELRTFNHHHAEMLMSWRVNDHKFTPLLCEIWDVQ
# Method in brief: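 COS-7 cells were transiently cotransfected with full-length FXR, EcRE-Luc reporter and a renilla control. Ligands were added 5 h after transfection, and cells were harvested 24 h later. Firefly luciferase was normalized to renilla in a dual-luciferase read-out.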
# [3] = test system: RA-resistant human colon cancer HCT116 cells; assay: MTT cell viability assay, HCT116; assay type: cell-based; conditions: 48 h, read-out: Cell viability as a percentage of the cells treated with DMSO, HCT116; for viability at 20 µM: HCT-116, 20 uM; for viability at 40 µM: HCT-116, 40 uM
# Method in brief: (§1)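 MTT read-out of cell viability, given relative to DMSO-treated controls, after exposure to 20 uM or 40 uM compound. Cells were grown in DMEM supplemented with 10% fetal bovine serum.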
# [4] = test system: human cervical carcinoma Hela cells; assay: MTT cell viability assay, Hela; assay type: cell-based; conditions: 48 h, read-out: Cell viability as a percentage of the cells treated with DMSO, Hela
# Method in brief: as §1
# [5] = test system: human breast cancer MCF7 cells; assay: MTT cell viability assay, MCF-7; assay type: cell-based; conditions: 48 h, read-out: Cell viability as a percentage of the cells treated with DMSO, MCF-7
# Method in brief: as §1
# [6] = test system: human hepatoma HepG2 cells; assay: MTT cell viability assay, HepG2; assay type: cell-based; conditions: 48 h, read-out: Cell viability as a percentage of the cells treated with DMSO, HepG2
# Method in brief: as §1
# [7] = test system: human colorectal adenocarcinoma HCT15 cells; assay: MTT cell viability assay, HCT15; assay type: cell-based; conditions: 48 h, read-out: Cell viability as a percentage of the cells treated with DMSO, HCT15; for viability at 20 µM: HCT-15, 20 uM; for viability at 40 µM: HCT-15, 40 uM
# Method in brief: as §1
# [8] = SRC1-2 peptide, read-out: EC50 (μM) of FXR binding by AlphaScreen assay recruit SRC1-2
# [9] = SRC2-3 peptide, read-out: EC50 (μM) of FXR binding by AlphaScreen assay recruit SRC2-3
Compound,"EC50 [1, 8] [µM]","EC50 [1, 9] [µM]",Cell-based FXR transactivation Fold changes by 5 μM compound [2],EC50 [2] [nM],viability at 20 µM [3] [%],viability at 40 µM [3] [%],viability at 20 µM [4] [%],viability at 40 µM [4] [%],viability at 20 µM [5] [%],viability at 40 µM [5] [%],viability at 20 µM [6] [%],viability at 40 µM [6] [%],viability at 20 µM [7] [%],viability at 40 µM [7] [%]
"Nc1ccc(C(=O)OC2CCCCCC2)cc1 [XD-12, cycloheptyl 4-aminobenzoate]",> 10,> 10,1.5,,77 ± 3,65 ± 3,100 ± 2,90 ± 5,100 ± 4,82,100 ± 2,97 ± 3,65 ± 4,54 ± 4
"CC1(C)C2CCC1(C)C(OC(=O)c1ccc(F)c(Br)c1)C2 (stereo not shown) [XD-13, 1,7,7-trimethyl-bicyclo[2.2.1]-heptan-2-yl 3-bromo-4-fluoro-benzoate]",< 1,< 1,4,< 1000,100 ± 2,70 ± 5,100 ± 3,96 ± 1,100 ± 7,100 ± 1,92 ± 3,86 ± 1,100 ± 2,71 ± 3
"Cc1cc(C(=O)OC2CCCCCCC2)ccc1O [XD-17, cyclooctyl 4-hydroxy-3-methylbenzoate]",< 1,< 1,3,< 1000,82 ± 2,27 ± 3,83 ± 4,39 ± 1,91 ± 9,25,87,40 ± 1,52 ± 2,24 ± 3
"COc1cc(C(=O)OC2CCCCCCC2)ccc1O [XD-18, cyclooctyl 4-hydroxy-3-methoxybenzoate]",< 1,< 1,3,< 1000,92 ± 1,30 ± 2,100 ± 3,71 ± 3,98 ± 10,32,96 ± 3,55 ± 1,91 ± 4,40 ± 4
"CC1(C)C2CCC1(C)C(OC(=O)C1CCC(O)CC1)C2 (stereo not shown) [XD-20, 1,7,7-trimethyl-bicyclo[2.2.1]-heptan-2-yl 4-hydroxy-cyclohexane-carboxylate]",1 to 10,1 to 10,6,1000 to 10000,79 ± 2,70 ± 7,100 ± 5,96 ± 1,85,82 ± 1,100 ± 5,100 ± 2,100 ± 4,84 ± 4
"Nc1ccc(C(=O)OC2CCC3CCCCC3C2)cc1 (stereo not shown) [XD-23, decahydro-naphthalen-2-yl 4-aminobenzoate]",< 0.5,< 0.5,−30,< 1000,75 ± 2,72 ± 2,100 ± 2,95 ± 3,100 ± 2,98 ± 2,100 ± 2,100 ± 2,81 ± 2,48 ± 2
"O=C(OC1CCC2CCCCC2C1)c1ccc(O)cc1 (stereo not shown) [XD-28, decahydro-naphthalen-2-yl 4-hydroxy-benzoate]",< 0.5,< 0.5,3,< 1000,100 ± 4,88 ± 4,94 ± 4,92 ± 4,100 ± 4,98 ± 4,100 ± 4,96 ± 4,99 ± 4,81 ± 4

# Continued, in another order:
"EC50 [1, 8] [µM]","EC50 [1, 9] [µM]",Cell-based FXR transactivation Fold changes by 5 μM compound [2],EC50 [2] [nM],Compound,viability at 20 µM [3] [%],viability at 40 µM [3] [%],viability at 20 µM [4] [%],viability at 40 µM [4] [%],viability at 20 µM [5] [%],viability at 40 µM [5] [%],viability at 20 µM [6] [%],viability at 40 µM [6] [%],viability at 20 µM [7] [%],viability at 40 µM [7] [%]
< 0.5,< 0.5,3,< 1000,"Cc1cc(C(=O)OC2CCC3CCCCC3C2)ccc1O (stereo not shown) [XD-29, decahydro-naphthalen-2-yl 4-hydroxy-3-methylbenzoate]",100 ± 2,96 ± 2,96 ± 2,90 ± 2,100 ± 2,88,100 ± 2,98 ± 2,72 ± 2,52 ± 2
< 0.5,< 0.5,3,< 1000,"COc1cc(C(=O)OC2CCC3CCCCC3C2)ccc1O (stereo not shown) [XD-30, decahydro-naphthalen-2-yl 4-hydroxy-3-methoxybenzoate]",100 ± 2,100 ± 2,81,79 ± 2,100 ± 2,92 ± 2,100 ± 2,94 ± 2,96 ± 2,77 ± 2
,1 to 10,2,1000 to 10000,"Cc1cc(C(=O)OC2CCC3CCCCC3C2)ccc1[N+](=O)[O-] (stereo not shown) [XD-35, decahydro-naphthalen-2-yl 3-methyl-4-nitro-benzoate]",95 ± 2,93 ± 2,94 ± 2,93 ± 2,100 ± 2,100 ± 2,100 ± 2,93 ± 2,100 ± 2,93 ± 2
,1 to 10,3,1000 to 10000,"COc1cc(C(=O)OC2CCC3CCCCC3C2)ccc1[N+](=O)[O-] (stereo not shown) [XD-36, decahydro-naphthalen-2-yl 3-methoxy-4-nitrobenzoate]",93 ± 3,91 ± 3,93 ± 3,85 ± 3,100 ± 3,87,100 ± 3,81 ± 3,100 ± 3,92 ± 3
